Measurements published in patent US8026275B2 (priority 2005, dated 2011).
Read-outs that look alike come from different tables or passages of the source.

Legend:
[1] = Total Antioxidant Status Assay (CalBiochem), inhibition of ABTS oxidation; type: biochemical; conditions: read-out: Antioxidant activity (IC50, 50% suppression of ABTS+ absorbance at 600 nm)
Source text: The assay used relies on the ability of antioxidants in the sample to inhibit the oxidation of ABTS (2,2'-Azino-di-[3-ethylbenzthiazoline sulphonate]) to ABTS+ by metmyoglobin (a peroxidase). The amount of ABTS+ produced was monitored at 600 nm. Under the reaction conditions used, the antioxidants in the sample suppress the absorbance at 600 nm to a degree which is proportional to their concentration and antioxidant activity.

GABAA Cl channel [2] = target: T1, GABAA Cl channel; type: binding, bovine; conditions: for Kd: read-out: binding constant (KD), inhibition of TBOB binding to GABAA receptor
T1 construct: other: determined graphically, increasing concentr; other: 10^-4M, bovine hippocampus

rats [3] = assay: Anesthetic activity in vivo, time to recovery of righting reflex; design: species or system rat; conditions: for toxicity compared with 2,6-diisopropyl phenol: equimolar dose; for duration of anesthesia (time to recovery of righting reflex): tail vein injection in DMSO, 28 μmol/kg (5 mg/kg for 2,6-diisopropyl phenol)
Method: Drugs solubilized in DMSO were administered to rats by tail vein injection (N=5 rats per group). […] GABAA binding activity in vitro was performed as described in Example 27.

in vivo [4] = conditions: rat, plasma, intravenous, 5 mg/kg
rats [5] = assay: Dose escalation in rats: mortality and anesthetic activity; conditions: rats; for LD10: in DMSO, calculated from mortality curves
Method: (§1) Drugs solubilized in DMSO were administered to rats (5 rats per group). Anesthetic activity in vivo was determined as time to recovery of righting reflex. […] In order to adjust for the differences in molecular weight between the two compounds, umol/kg dose was used.

[6] = as above; conditions: rat, in vivo
Method: as §1

[7] = rat, intravenously via jugular vein cannula, in DMSO, blood
GABAA alpha-1 site = conditions: 10^-4M, bovine hippocampus
[8] = dissolved in DMSO
GABAA agonist site = conditions: 10^-4M, bovine hippocampus
GABAA Cl channel [9] = type: binding, bovine; conditions: read-out: IC50 of binding to GABA Cl channel
GABAA alpha 2 site = conditions: 10^-4M, bovine hippocampus
GABAA alpha-6 site = conditions: 10^-4M, bovine hippocampus
in vivo [10] = conditions: rat
Source text: Time plasma concentration curve was processed using a two compartment PK model supported by WinNonlin.

[11] = determined graphically, increasing concentrations
[12] = 5 mg/kg intravenously in DMSO, plasma

CC(C)c1cc(C(=O)c2ccc([N+](=O)[O-])cc2)cc(C(C)C)c1O [Compound 3, (4-hydroxy-3,5-diisopropylphenyl)-(4-nitrophenyl)methanone]
IC50 [1]: > 1000 µM

CC(C)c1cc(C(O)c2ccc(C(F)(F)F)cc2)cc(C(C)C)c1O (stereo not drawn) [Compound 20, 4-((4-(trifluoromethyl)phenyl)(hydroxy)methyl)-2,6-diisopropylphenol]
IC50 [1]: 28 µM

CC(C)c1cc(C(=O)c2ccc(C(F)(F)F)c(F)c2)cc(C(C)C)c1O [Compound 4, (3-fluoro-4-(trifluoromethyl)phenyl)-(4-hydroxy-3,5-diisopropylphenyl)methanone]
IC50 [1]: > 1000 µM

CC(C)c1cc(C(=O)c2cccc(C(F)(F)F)c2)cc(C(C)C)c1O [Compound 5, (3-(trifluoromethyl)phenyl)-(4-hydroxy-3,5-diisopropylphenyl)methanone]
IC50 [1]: > 1000 µM

CC(C)c1cc(C(=O)c2ccc(F)cc2)cc(C(C)C)c1O [Compound 1, (4-fluorophenyl)-(4-hydroxy-3,5-diisopropylphenyl)methanone]
IC50 [1]: > 1000 µM

CC(C)c1cc(C(=O)c2cc(F)cc(C(F)(F)F)c2)cc(C(C)C)c1O [Compound 6, (3-fluoro-5-(trifluoromethyl)phenyl)-(4-hydroxy-3,5-diisopropylphenyl)methanone]
IC50 [1]: > 1000 µM

CC(C)c1cc(C(=O)c2ccc(C(F)(F)F)nc2)cc(C(C)C)c1O [Compound 14, (6-(trifluoromethyl)pyridin-3-yl)-(4-hydroxy-3,5-diisopropylphenyl)methanone]
IC50 [1]: > 1000 µM

CC(C)c1cc(C(=O)c2ccc(I)cc2)cc(C(C)C)c1O [Compound 11, (4-hydroxy-3,5-diisopropylphenyl)-(4-iodophenyl)methanone]
Kd (GABAA Cl channel [2]; [11]): 0.36 µM
IC50 [1]: > 1000 µM
toxicity compared with 2,6-diisopropyl phenol (rats [3]): did not have toxicity above that of 2,6-diisopropyl phenol
duration of anesthesia (time to recovery of righting reflex) (rats [3]): 86 min

CC(C)c1cccc(C(C)C)c1O [2,6-diisopropyl phenol]
concentration at 20 min (in vivo [4]): 750 nM
time asleep at LD10 (rats [5]): 0.35 h
LD10 (rats [5]): 28 µmol/kg
LD50 [6]: 45.3 µmol/kg
AUC [7]: 400 ng·h/mL
CL [7]: 195 mL/min/kg
Cmax [7]: 300 ng/mL
Vc (volume of the central compartment) [7]: 15.0 L/kg
Vt (volume of the tissue compartment) [7]: 58.0 L/kg
inhibition of the alpha 1 site (GABAA alpha-1 site): No significant inhibition
time the rat was put to sleep [8]: 20 min
inhibition of the agonist site (GABAA agonist site): No significant inhibition
IC50 (GABAA Cl channel [9]): 96 µM
inhibition of TBOB binding to the chloride channel (GABAA Cl channel [2]): inhibited the binding of TBOB
Kd (GABAA Cl channel [2]): 5.74 µM
inhibition of the alpha 2 site (GABAA alpha 2 site): No significant inhibition
inhibition of the alpha 6 site (GABAA alpha-6 site): No significant inhibition
duration of anesthesia (time to recovery of righting reflex) (rats [3]): 20 min
V1 (in vivo [10]; [12]): 15 L/kg
V2 (in vivo [10]; [12]): 58 L/kg
AUC (in vivo [10]; in vivo, iv, 5 mg/kg): 400 ng·h/mL
Cmax (in vivo [10]; in vivo, iv, 5 mg/kg): 300 ng/mL
Vd (in vivo [10]; in vivo, iv, 5 mg/kg): 73 L/kg
clearance (in vivo [10]; in vivo, iv, 5 mg/kg): 200 mL/min/kg

CC(C)c1cc(C(=O)c2ccc(C#N)cc2)cc(C(C)C)c1O [Compound 13, (4-cyanophenyl)-(4-hydroxy-3,5-diisopropylphenyl)methanone]
IC50 [1]: > 1000 µM

CC(C)c1cc(C(=O)c2ccc(C(C)(C)C)cc2)cc(C(C)C)c1O [Compound 9, (4-tert-butylphenyl)-(4-hydroxy-3,5-diisopropylphenyl)methanone]
IC50 [1]: > 1000 µM

CC(C)c1cc(C(=O)c2ccc(C(F)(F)F)cc2)cc(C(C)C)c1O [Compound 2]
time asleep at LD10 (rats [5]): 1.73 h
anesthetic activity compared with 2,6-diisopropyl phenol (rats [5]; dose escalation): better anesthetic activity than 2,6-diisopropyl phenol at all dose levels
LD10 (rats [5]): 29 µmol/kg
LD50 [6]: 62.1 µmol/kg
AUC [7]: 127000 ng·h/mL
CL [7]: 1.3 mL/min/kg
Cmax [7]: 283000 ng/mL
Vc (volume of the central compartment) [7]: 0.04 L/kg
Vss (volume distribution at steady state) [7]: 5.3 L/kg
Vt (volume of the tissue compartment) [7]: 5.2 L/kg
Kd (GABAA Cl channel [2]; [11]): 0.42 µM
IC50 [1]: > 1000 µM
toxicity compared with 2,6-diisopropyl phenol (rats [3]): did not have toxicity above that of 2,6-diisopropyl phenol
duration of anesthesia (time to recovery of righting reflex) (rats [3]): 75 to 92 min
